Source: PubChem BioAssay AID2060511 (Molecular Pharmacology Branch, DTP, NCI, 2025)

Tested on: 422866-222-R5-J1-PDC spheroids with HUVEC/MSC, viability
Experiment: Anticancer human tumor 422866-222-R5-J1-PDC patient-derived pancreatic adenocarcinoma cell line growth inhibition [GQUAD]
Conditions: for IC50: curve of first compound; for viability, T/C: stronger effect = lower value; active = viability on the fitted dose curve at most 10% of control; inactive = the rest
Summary of the method: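 Tumor cells were grown as complex spheroids with HUVEC endothelial cells and mesenchymal stem cells as stroma. G-quadruplex stabilizers were combined with targeted agents over half-log dilutions from near the clinical Cmax, or from 10 microM.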

[1] = second compound 0.0316 µM, first compound 0.0316 µM
[2] = second compound 0.0316 µM, first compound 0.1 µM
[3] = second compound 0.0316 µM, first compound 0.316 µM
[4] = second compound 0.0316 µM, first compound 1 µM
[5] = second compound 0.0316 µM, first compound 3.16 µM
[6] = second compound 0.0316 µM, first compound 10 µM
[7] = second compound 0.1 µM, first compound 0.0316 µM
[8] = second compound 0.1 µM, first compound 0.1 µM
[9] = second compound 0.1 µM, first compound 0.316 µM
[10] = second compound 0.1 µM, first compound 1 µM
[11] = second compound 0.1 µM, first compound 3.16 µM
[12] = second compound 0.1 µM, first compound 10 µM
[13] = second compound 0.316 µM, first compound 0.0316 µM
[14] = second compound 0.316 µM, first compound 0.1 µM
[15] = second compound 0.316 µM, first compound 0.316 µM
[16] = second compound 0.316 µM, first compound 1 µM
[17] = second compound 0.316 µM, first compound 3.16 µM
[18] = second compound 0.316 µM, first compound 10 µM
[19] = second compound 1 µM, first compound 0.0316 µM
[20] = second compound 1 µM, first compound 0.1 µM
[21] = second compound 1 µM, first compound 0.316 µM
[22] = second compound 1 µM, first compound 1 µM
[23] = second compound 1 µM, first compound 3.16 µM
[24] = second compound 1 µM, first compound 10 µM
[25] = second compound 3.16 µM, first compound 0.0316 µM
[26] = second compound 3.16 µM, first compound 0.1 µM
[27] = second compound 3.16 µM, first compound 0.316 µM
[28] = second compound 3.16 µM, first compound 1 µM
[29] = second compound 3.16 µM, first compound 3.16 µM
[30] = second compound 3.16 µM, first compound 10 µM
[31] = second compound 10 µM, first compound 0.0316 µM
[32] = second compound 10 µM, first compound 0.1 µM
[33] = second compound 10 µM, first compound 0.316 µM
[34] = second compound 10 µM, first compound 1 µM
[35] = second compound 10 µM, first compound 3.16 µM
[36] = second compound 10 µM, first compound 10 µM
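Also: spheroids exposed to compounds for seven days before reading.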
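For viability, T/C in this document: percent viability relative to DMSO vehicle control taken as 100%.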

CC1COCCN1c1cc(C2(S(C)(=N)=O)CC2)nc(-c2ccnc3[nH]ccc23)n1 (stereo not drawn) + Cc1[nH]c2ccc(F)cc2c1-c1nc2c3cccnc3c3ncccc3c2[nH]1
2.28 µM: IC50 (second compound 3.16 µM)
2.35 µM: IC50 (second compound 0.1 µM)
5.49 µM: IC50 (second compound 0.316 µM)
3.01 µM: IC50 (second compound 0.0316 µM)
inactive: viability, T/C [1] 99.6% | viability, T/C [2] 84.9% | viability, T/C [3] 90.2% | viability, T/C [4] 62.4% | viability, T/C [5] 52% | viability, T/C [6] 41.5% | viability, T/C [7] 78.9% | viability, T/C [8] 83.8% | viability, T/C [9] 92.3% | viability, T/C [10] 62.2% | viability, T/C [11] 48.9% | viability, T/C [12] 42.5% | viability, T/C [13] 106% | viability, T/C [14] 84.9% | viability, T/C [15] 88.2% | viability, T/C [16] 72.6% | viability, T/C [17] 56.2% | viability, T/C [18] 41.7% | viability, T/C [19] 70.3% | viability, T/C [20] 90.4% | viability, T/C [21] 78.8% | viability, T/C [22] 66.7% | viability, T/C [23] 51.4% | viability, T/C [24] 45.2% | viability, T/C [25] 69.4% | viability, T/C [26] 79.4% | viability, T/C [27] 67.5% | viability, T/C [28] 57.3% | viability, T/C [29] 48.4% | viability, T/C [30] 40.2% | viability, T/C [31] 81.6% | viability, T/C [32] 63.7% | viability, T/C [33] 65.6% | viability, T/C [34] 50.4% | viability, T/C [35] 50.7% | viability, T/C [36] 54.3%
> 10 µM: IC50 (second compound 10 µM)
3.47 µM: IC50 (second compound 1 µM)

Cc1cccc(N(C)C(=O)C2C(O)CCN2c2nc(C)cc(C(F)(F)F)c2C#N)c1 (stereo not drawn) + Cc1[nH]c2ccc(F)cc2c1-c1nc2c3cccnc3c3ncccc3c2[nH]1
> 10 µM: IC50 (second compound 0.0316 µM) | IC50 (second compound 0.1 µM) | IC50 (second compound 0.316 µM) | IC50 (second compound 1 µM) | IC50 (second compound 3.16 µM) | IC50 (second compound 10 µM)
inactive: viability, T/C [1] 107% | viability, T/C [2] 95.2% | viability, T/C [3] 102% | viability, T/C [4] 79.5% | viability, T/C [5] 116% | viability, T/C [6] 108% | viability, T/C [7] 88.8% | viability, T/C [8] 92.2% | viability, T/C [9] 116% | viability, T/C [10] 82.8% | viability, T/C [11] 99.9% | viability, T/C [12] 107% | viability, T/C [13] 89.9% | viability, T/C [14] 92.9% | viability, T/C [15] 97.4% | viability, T/C [16] 98.3% | viability, T/C [17] 115% | viability, T/C [18] 114% | viability, T/C [19] 92.7% | viability, T/C [20] 101% | viability, T/C [21] 111% | viability, T/C [22] 103% | viability, T/C [23] 120% | viability, T/C [24] 93.1% | viability, T/C [25] 80.2% | viability, T/C [26] 96.1% | viability, T/C [27] 89.6% | viability, T/C [28] 84.1% | viability, T/C [29] 104% | viability, T/C [30] 96.4% | viability, T/C [31] 82.5% | viability, T/C [32] 86.8% | viability, T/C [33] 100% | viability, T/C [34] 86.9% | viability, T/C [35] 90.1% | viability, T/C [36] 96.9%

Cn1ncnc1[C@H]1c2n[nH]c(=O)c3cc(F)cc(c23)N[C@@H]1c1ccc(F)cc1 + Cc1[nH]c2ccc(F)cc2c1-c1nc2c3cccnc3c3ncccc3c2[nH]1
inactive: viability, T/C (second compound 0.0316 µM, first compound 0.000999 µM) 92.4% | viability, T/C (second compound 0.0316 µM, first compound 0.00316 µM) 92.3% | viability, T/C (second compound 0.0316 µM, first compound 0.00999 µM) 105% | viability, T/C [1] 91.8% | viability, T/C (second compound 0.0316 µM, first compound 0.0999 µM) 86.5% | viability, T/C [3] 81.9% | viability, T/C (second compound 0.1 µM, first compound 0.000999 µM) 99.5% | viability, T/C (second compound 0.1 µM, first compound 0.00316 µM) 102% | viability, T/C (second compound 0.1 µM, first compound 0.00999 µM) 102% | viability, T/C [7] 89.5% | viability, T/C (second compound 0.1 µM, first compound 0.0999 µM) 97.3% | viability, T/C [9] 86.8% | viability, T/C (second compound 0.316 µM, first compound 0.000999 µM) 105% | viability, T/C (second compound 0.316 µM, first compound 0.00316 µM) 114% | viability, T/C (second compound 0.316 µM, first compound 0.00999 µM) 83.2% | viability, T/C [13] 91.2% | viability, T/C (second compound 0.316 µM, first compound 0.0999 µM) 91.4% | viability, T/C [15] 97.3% | viability, T/C (second compound 1 µM, first compound 0.000999 µM) 89.6% | viability, T/C (second compound 1 µM, first compound 0.00316 µM) 109% | viability, T/C (second compound 1 µM, first compound 0.00999 µM) 104% | viability, T/C [19] 108% | viability, T/C (second compound 1 µM, first compound 0.0999 µM) 94.3% | viability, T/C [21] 80.8% | viability, T/C (second compound 3.16 µM, first compound 0.000999 µM) 93.1% | viability, T/C (second compound 3.16 µM, first compound 0.00316 µM) 82.8% | viability, T/C (second compound 3.16 µM, first compound 0.00999 µM) 80.4% | viability, T/C [25] 78.8% | viability, T/C (second compound 3.16 µM, first compound 0.0999 µM) 94.3% | viability, T/C [27] 81.9% | viability, T/C (second compound 10 µM, first compound 0.000999 µM) 87.5% | viability, T/C (second compound 10 µM, first compound 0.00316 µM) 92.7% | viability, T/C (second compound 10 µM, first compound 0.00999 µM) 87% | viability, T/C [31] 97.7% | viability, T/C (second compound 10 µM, first compound 0.0999 µM) 81.1% | viability, T/C [33] 71.1%
> 0.316 µM: IC50 (second compound 0.0316 µM) | IC50 (second compound 0.1 µM) | IC50 (second compound 0.316 µM) | IC50 (second compound 1 µM) | IC50 (second compound 3.16 µM) | IC50 (second compound 10 µM)

O=C(c1cc(Cc2n[nH]c(=O)c3ccccc23)ccc1F)N1CCN(C(=O)C2CC2)CC1 + Cc1[nH]c2ccc(F)cc2c1-c1nc2c3cccnc3c3ncccc3c2[nH]1
inactive: viability, T/C [1] 99% | viability, T/C [2] 87.9% | viability, T/C [3] 91% | viability, T/C [4] 77% | viability, T/C [5] 83.1% | viability, T/C [6] 65.6% | viability, T/C [7] 102% | viability, T/C [8] 85.1% | viability, T/C [9] 86% | viability, T/C [10] 89.2% | viability, T/C [11] 93% | viability, T/C [12] 81.4% | viability, T/C [13] 104% | viability, T/C [14] 83.9% | viability, T/C [15] 90.6% | viability, T/C [16] 72.8% | viability, T/C [17] 87.4% | viability, T/C [18] 79.7% | viability, T/C [19] 89.9% | viability, T/C [20] 100% | viability, T/C [21] 89.2% | viability, T/C [22] 88.7% | viability, T/C [23] 94.7% | viability, T/C [24] 83.6% | viability, T/C [25] 79.4% | viability, T/C [26] 83.5% | viability, T/C [27] 75.4% | viability, T/C [28] 100% | viability, T/C [29] 81.7% | viability, T/C [30] 79.6% | viability, T/C [31] 66.6% | viability, T/C [32] 70.8% | viability, T/C [33] 81.2% | viability, T/C [34] 64.2% | viability, T/C [35] 85.9% | viability, T/C [36] 77.7%
> 10 µM: IC50 (second compound 0.0316 µM) | IC50 (second compound 0.1 µM) | IC50 (second compound 0.316 µM) | IC50 (second compound 1 µM) | IC50 (second compound 3.16 µM) | IC50 (second compound 10 µM)
